This note sets out measurements from paper PMC3057186, “Identification and characterization of seven new exon 11-associated splice variants of the rat mu opioid receptor gene, OPRM1” (Molecular Pain, 2011).

Holding throughout (experiment): [3H]DAMGO saturation binding, CHO membranes
One assay deals with T1, rMOR-1H1 (Rattus norvegicus, UniProt B8Q1M0).
T1 construct: gene Oprm1; exon 11-associated transcript predicting the same protein as rMOR-1 (AUG in exon 1a)

In a further assay the target is T2, rMOR-1H2 (Rattus norvegicus, UniProt D2CKI5).
T2 construct: gene Oprm1; 7 TM

In another assay the target is T3, rMOR-1i2 (Rattus norvegicus, UniProt B8Q1M0).
T3 construct: gene Oprm1; exon 11-associated transcript predicting the same protein as rMOR-1 (AUG in exon 1a)
T3 sequence (B8Q1M0 1-398): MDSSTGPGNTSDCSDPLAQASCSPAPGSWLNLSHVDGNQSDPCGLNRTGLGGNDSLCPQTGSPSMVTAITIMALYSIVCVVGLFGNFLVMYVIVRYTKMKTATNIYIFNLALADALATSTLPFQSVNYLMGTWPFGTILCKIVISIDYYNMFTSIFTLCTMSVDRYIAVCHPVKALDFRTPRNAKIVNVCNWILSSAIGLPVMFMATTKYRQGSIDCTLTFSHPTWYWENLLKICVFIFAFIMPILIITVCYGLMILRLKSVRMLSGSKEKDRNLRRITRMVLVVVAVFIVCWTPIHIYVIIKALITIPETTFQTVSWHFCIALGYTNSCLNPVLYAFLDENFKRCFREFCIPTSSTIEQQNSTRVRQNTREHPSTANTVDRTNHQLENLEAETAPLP

T1 sequence (B8Q1M0 1-398): as above
T2 sequence (D2CKI5 1-448): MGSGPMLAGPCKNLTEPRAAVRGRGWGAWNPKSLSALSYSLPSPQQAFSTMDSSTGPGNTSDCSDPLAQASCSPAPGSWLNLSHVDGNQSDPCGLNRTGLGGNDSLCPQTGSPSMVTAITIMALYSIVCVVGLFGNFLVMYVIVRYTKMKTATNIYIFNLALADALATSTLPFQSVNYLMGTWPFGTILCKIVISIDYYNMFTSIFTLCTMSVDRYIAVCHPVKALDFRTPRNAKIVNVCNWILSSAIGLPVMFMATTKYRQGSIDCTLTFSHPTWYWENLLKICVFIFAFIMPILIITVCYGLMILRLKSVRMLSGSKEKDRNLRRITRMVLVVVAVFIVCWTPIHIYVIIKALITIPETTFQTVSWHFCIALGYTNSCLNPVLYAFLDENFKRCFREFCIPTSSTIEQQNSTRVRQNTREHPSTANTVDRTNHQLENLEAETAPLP

In the case of `C[C@@H](NC(=O)[C@@H](N)Cc1ccc(O)cc1)C(=O)NCC(=O)N(C)[C@@H](Cc1ccccc1)C(=O)NCCO` [DAMGO], the Kd (commonly a measure of binding affinity in units of concentration) at rMOR-1H1 is 510 ± 50 pM; on rMOR-1H2, 370 ± 20 pM; on rMOR-1i2 it was 360 ± 40 pM.
